Assays:
human CD8+ T cells = assay: Human T cells stimulated with αCD3/αCD28 in presence of UA; format: cell-based
Description: Splenic murine T cells were isolated from mice aged 6-20 weeks by negative selection with EasySep mouse T cell isolation kit (Stem cell) according to the manufacturer's instructions. To monitor T cell proliferation, purified T cells were loaded with CellTrace Violet (C34557 ThermoFisher Scientific). T cell activation was initiated using αCD3/CD28 activation beads (11456D; ThermoFisher Scientific) at a ratio of 25 μl dynabeads per 0.5×106 T-cells. Cells were activated with 25-50 μM Urolithin A (Tocris) or DMSO in T cell activation Medium (RPMI (ThermoFisher Scientific) 10% FBS (South America origin), 10 mM Hepes (Sigma), 1×Non-Essential Amino Acid, 1 mM Sodium Pyruvate, 50 µM β-Mercaptoethanol, 100 U/mL penicillin, 100 μg/mL streptomycin and 2 mM Glutamax (ThermoFisher Scientific) for the indicated durations. In selected experiments, cells were stimulated in the presence of inhibitors, namely TCFli (ICG-001; SelleckChem; […]) and PGC-lai (SR-18292, Sigma-Aldrich; […]). For subsequent analysis, activating beads were magnetically removed prior antibody staining. For human T cells, peripheral blood mononuclear cells were purified with a Ficoll-Paque (GE healthcare) gradient. T cells were enriched with EasySep Human T Cell Isolation Kit (StemCell) and activated with dynabead Human T-Activator CD3/CD28 for T Cell Expansion and Activation Kit (11131D; ThermoFisher Scientific), similar to murine T cell stimulation. When the subsequent activation and expansion of CAR T cells was studied, plates were coated with 1 μg/mL anti-human CD3 (αCD3; clone OKT3) and thawed PBMC were cultivated with […] anti-human CD28 (αCD28; 15E8, both Miltenyi Biotec) containing media for three days. (NutriT media (4Cell® Nutri-T media (Sartorius) containing 0.5% penicillin/streptomycin) supplemented with IL-7 (25 U/mL) and IL-15 […] (all Miltenyi Biotec)).
Tumors were minced and digested with Tumor & Tissue Dissociation Reagent (BD Horizon) for 30 min. The remaining organ pieces were filtered through a 70 µm cell strainer. Cells were then washed with PBS 1% BSA and 2 mM EDTA. […]

mouse T lymphocytes = assay: Proportion of mouse T memory stem cells (Tscm); format: cell-based; conditions: 2 μM, 72 h
Description: T cells were isolated and stimulated as described in Example 14.
Tscm represent a subset of minimally differentiated T cells, which share a CD44^loCD62L^hi phenotype with naïve T cells, but are phenotypically distinct by expressing high levels of Sca1 (Gattinoni et al., 2009). Tscm are therefore identified as CD44^−CD62L^+Sca1^hi cells.
Flow cytometry and analysis was performed as described in Example 14.

| SMILES | TCF1 expression in human CD8+ T cells (human CD8+ T cells; after 48 hours) | mitochondrial membrane potential of human CD8+ T cells (human CD8+ T cells; after 48 hours) | frequency of human TSCM cells (CD45RA+CCR7HiCD62L+CD95+CD8+) (human CD8+ T cells; five out of five individual donors, 48 h) | increase in the percentage of Tscm in CD8+ cells vs DMSO (mouse T lymphocytes) [%] | percentage of Tscm in CD8+ cells (mouse T lymphocytes; DMSO 16.7%) [%] |
| --- | --- | --- | --- | --- | --- |
| O=c1oc2cc(O)ccc2c2ccc(O)cc12 [UA, Urolithin A] | increased | decreased | increased the frequency | – | – |
| O=c1oc2cc(O)ccc2c2ccc(OC3CCOCC3)cc12 [compound 33, 3-hydroxy-8-((tetrahydro-2H-pyran-4-yl)oxy)-6H-benzo[c]chromen-6-one] | – | – | – | 81 | 30.2 |
